Laboratory results reported in patent US5389627A, “Cephem compounds” (priority 1993, dated 1995).
Converted amounts (≈) assume the structure as drawn.

Columns and labels:
[1] = Pharmacokinetics (plasma half-life); type: in vivo; conditions: in vivo, SD Rat, mean value, read-out: Half-Life (T1/2)
Description: In order to investigate the pharmacokinetics properties of the compounds according to the present invention, the plasma half-life was determined in accordance with the method described in Antimicrobial Agents and Chemotherapy, 26(2), p.

S.aureus C4036 = assay: In vitro antibacterial activity, minimum inhibitory concentration; type: cell-based; conditions: Staphylococcus aureus, C4036, read-out: Minimum Inhibitory Concentration (MIC)
From the text: (§1) As reference compounds, Cefotaxime (CTX), Ceftazidime (CAZ) and Cefpirome (CPR) were employed.

E.coli ATCC25922 = assay: as above; type: cell-based; conditions: Escherichia coli, ATCC25922, read-out: Minimum Inhibitory Concentration (MIC)
From the text: as §1

P.rettgeri ATCC9919 = assay: as above; type: cell-based; conditions: Providencia rettgeri, ATCC9919, read-out: Minimum Inhibitory Concentration (MIC)
From the text: as §1

S.aureus ATCC29213 = assay: as above; type: cell-based; conditions: Staphylococcus aureus, ATCC29213, read-out: Minimum Inhibitory Concentration (MIC)
From the text: as §1

S.pyogenes C4003 = assay: as above; type: cell-based; conditions: Streptococcus pyogenes, C4003, read-out: Minimum Inhibitory Concentration (MIC)
From the text: as §1

S.epidermidis ATCC12228 = assay: as above; type: cell-based; conditions: Staphylococcus epidermidis, ATCC12228, read-out: Minimum Inhibitory Concentration (MIC)
From the text: as §1

E.coli C4002 = assay: as above; type: cell-based; conditions: Escherichia coli, C4002, read-out: Minimum Inhibitory Concentration (MIC)
From the text: as §1

S.typhimurium C4045 = assay: as above; type: cell-based; conditions: Salmonella enterica, TYPHIMURIUM, read-out: Minimum Inhibitory Concentration (MIC)
From the text: as §1

P.mirabilis ATCC25933 = assay: as above; type: cell-based; conditions: Proteus mirabilis, ATCC25933, read-out: Minimum Inhibitory Concentration (MIC)
From the text: as §1

E.cloacae C4009 = assay: as above; type: cell-based; conditions: Enterobacter cloacae, C4009, read-out: Minimum Inhibitory Concentration (MIC)
From the text: as §1

S.pyogenes ATCC 8668 = assay: as above; type: cell-based; conditions: Streptococcus pyogenes, ATCC8668, read-out: Minimum Inhibitory Concentration (MIC)
From the text: as §1

P.aeruginosa ATCC27853 = assay: as above; type: cell-based; conditions: Pseudomonas aeruginosa, ATCC27853, read-out: Minimum Inhibitory Concentration (MIC)
From the text: as §1

E.coli ATCC10536 = assay: as above; type: cell-based; conditions: Escherichia coli, ATCC10536, read-out: Minimum Inhibitory Concentration (MIC)
From the text: as §1

MRSA C2208 = assay: as above; type: cell-based; conditions: Staphylococcus aureus, MRSA, read-out: Minimum Inhibitory Concentration (MIC)
From the text: as §1

E.cloacae C4008 = assay: as above; type: cell-based; conditions: Enterobacter cloacae, C4008, read-out: Minimum Inhibitory Concentration (MIC)
From the text: as §1

S.marcescens C1052 = assay: as above; type: cell-based; conditions: Serratia marcescens, C1052, read-out: Minimum Inhibitory Concentration (MIC)
From the text: as §1

K.pneumoniae C1040 = assay: as above; type: cell-based; conditions: Klebsiella pneumoniae, C1040, read-out: Minimum Inhibitory Concentration (MIC)
From the text: as §1

S.Faecalis ATCC29212 = assay: as above; type: cell-based; conditions: Enterococcus faecalis
From the text: as §1

K.pneumoniae ATCC10031 = assay: as above; type: cell-based; conditions: Klebsiella pneumoniae, ATCC10031, read-out: Minimum Inhibitory Concentration (MIC)
From the text: as §1

P.aeruginosa ATCC10145 = assay: as above; type: cell-based; conditions: Pseudomonas aeruginosa, ATCC10145, read-out: Minimum Inhibitory Concentration (MIC)
From the text: as §1

P.aeruginosa C4070 = assay: as above; type: cell-based; conditions: Pseudomonas aeruginosa, C4070, read-out: Minimum Inhibitory Concentration (MIC)
From the text: as §1

S.marcescens ATCC27117 = assay: as above; type: cell-based; conditions: Serratia marcescens, ATCC27117, read-out: Minimum Inhibitory Concentration (MIC)
From the text: as §1

P.aeruginosa C2027 = assay: as above; type: cell-based; conditions: Pseudomonas aeruginosa, C2027, read-out: Minimum Inhibitory Concentration (MIC)
From the text: as §1

S.aureus Smith = assay: as above; type: cell-based; conditions: Staphylococcus aureus, read-out: Minimum Inhibitory Concentration (MIC)
From the text: as §1

K.oxytoca C4022 = assay: as above; type: cell-based; conditions: Klebsiella oxytoca, C4022, read-out: Minimum Inhibitory Concentration (MIC)
From the text: as §1

CC(C)(O/N=C(\C(=O)N[C@@H]1C(=O)N2C(C(=O)[O-])=C(C[n+]3ccccc3)CS[C@H]12)c1csc(N)n1)C(=O)O [CAZ, Ceftazidime, reference compound] gave a half-life [1] of 12.3 min, an MIC (S.aureus C4036) of 6.25 µg/mL (≈ 11.4 µM) and an MIC (E.coli ATCC25922) of 0.2 µg/mL (≈ 0.366 µM). The MIC (P.rettgeri ATCC9919) was 0.025 µg/mL (≈ 0.0457 µM), the MIC (S.aureus ATCC29213) was 6.25 µg/mL (≈ 11.4 µM) and the MIC (S.pyogenes C4003) was 0.2 µg/mL (≈ 0.366 µM). For the same compound, the MIC (S.epidermidis ATCC12228) was 3.13 µg/mL (≈ 5.73 µM), the MIC (E.coli C4002) was 0.1 µg/mL (≈ 0.183 µM) and the MIC (S.typhimurium C4045) was 0.2 µg/mL (≈ 0.366 µM). For the same compound, the MIC (P.mirabilis ATCC25933) was 0.05 µg/mL (≈ 0.0915 µM), the MIC (E.cloacae C4009) was 0.05 µg/mL (≈ 0.0915 µM) and the MIC (S.pyogenes ATCC 8668) was 0.1 µg/mL (≈ 0.183 µM). The MIC (P.aeruginosa ATCC27853) was 3.13 µg/mL (≈ 5.73 µM), the MIC (E.coli ATCC10536) was 0.05 µg/mL (≈ 0.0915 µM) and the MIC (MRSA C2208) was over 100 µg/mL. It also gave an MIC (E.cloacae C4008) of 0.05 µg/mL (≈ 0.0915 µM), an MIC (S.marcescens C1052) of 0.2 µg/mL (≈ 0.366 µM) and an MIC (K.pneumoniae C1040) of 0.05 µg/mL (≈ 0.0915 µM). It also gave an MIC (S.Faecalis ATCC29212) of over 100 µg/mL, an MIC (K.pneumoniae ATCC10031) of 0.05 µg/mL (≈ 0.0915 µM) and an MIC (P.aeruginosa ATCC10145) of 1.56 µg/mL (≈ 2.85 µM). It also gave an MIC (P.aeruginosa C4070) of 1.56 µg/mL (≈ 2.85 µM), an MIC (S.marcescens ATCC27117) of 0.1 µg/mL (≈ 0.183 µM) and an MIC (P.aeruginosa C2027) of 0.78 µg/mL (≈ 1.43 µM). For the same compound, the MIC (S.aureus Smith) was 6.25 µg/mL (≈ 11.4 µM) and the MIC (K.oxytoca C4022) was 0.78 µg/mL (≈ 1.43 µM).
